Experimental data as given in patent US20120301551A1, “COMPOUNDS AND COMPOSITIONS FOR TREATING NEURONAL DEATH OR NEUROLOGICAL DYSFUNCTION” (Neurotech Pharmaceuticals Co., Ltd., priority 2005, published 2012).
Entries after “also recorded” stand apart in the source; their conditions may differ.

Columns and labels:
[1] = test system: mixed cortical cell cultures containing neurons and glia; assay: Fe2+-induced free radical neurotoxicity in mixed cortical cell cultures (LDH release); format: cell-based, mouse; details: for Fe^2+-induced free radical neurotoxicity, effect in words: 50 μM Fe^2+, 24 hr, 2-Hydroxy-TTBA or 2-Hydroxy-TPEA at doses as low as 0.3 μM, vitamin E at higher doses, Li^+ 10 mM (legend 5 mM); for Fe^2+-induced neuronal death (oxidative stress), effect in words: FIG. 5A: 30 μM Fe^2+, 24 h, 1 μM 2-hydroxy TTBA (submicromolar), 5 mM Li^+; for IC50: Mus musculus, Neuron, 50 μM FeCl2, neuronal death 24 hr later (LDH), read-out: IC50 (50% protection against Fe^2+-induced free radical neurotoxicity)
Description: (§1) Mouse cortical cell cultures (DIV 11-15) were exposed to 50 μM Fe^2+ or 10 mM BSO, alone or with inclusion of 5 mM Li^+. Neuronal death was analyzed 24 hr later by measuring levels of LDH released into the bathing medium, mean±SEM (n=9-12 culture wells per condition).
Mouse cortical cell cultures (DIV 11-15) were exposed to 30 μM Fe^2+ or 10 mM BSO, alone or in the presence of 1 μM 2-hydroxy TTBA, 10-100 μM vitamin E, or 5 mM Li^+.
For mixed neuron-glia culture, mouse cerebral cortices were removed from brains of the 11-15 day-old-fetal mice (E11-15), gently triturated and plated on 24 well plates (2×10^5 cells/plate) precoated with 100 μg/ml poly-D-lysine and 4 pg/ml laminin. Cultures were maintained at 37° C. in a humidified 5% CO2 atmosphere.
After 7-8 days in vitro (DIV 7-8), 10 μM cytosine arabinofuranoside (Ara-C) was included to halt overgrowth of glia. The drug treatment was carried on DIV 11-15 cortical cell culture.
Oxidative stress was induced by exposing mixed cortical cell cultures containing neurons and glia (DIV 11-15) to 50 μM FeCl2, a hydroxyl radical-producing transition metal via a Fenton reaction, or 10 mM DL-buthionine-[S,R]-sulfoximine (BSO), a glutathione depleting agent.

[2] = test system: mixed cortical cell cultures containing neurons and glia; assay: BSO-induced free radical neurotoxicity in mixed cortical cell cultures (LDH release); format: cell-based, mouse; details: for BSO-induced free radical neurotoxicity, effect in words: 10 mM BSO, 24 hr, 2-Hydroxy-TTBA or 2-Hydroxy-TPEA at doses as low as 0.3 μM, Li^+ 10 mM (legend 5 mM); for BSO-induced neuronal death (oxidative stress), effect in words: FIG. 5A: 10 mM BSO, 24 h, 1 μM 2-hydroxy TTBA (submicromolar), 5 mM Li^+
Description: Mouse cortical cell cultures (DIV 11-15) were exposed to 10 mM BSO, alone or with indicated doses of 2-Hydroxy-TTBA or 2-Hydroxy-TPEA. Neuronal death was analyzed 24 hr later by measuring levels of LDH released into the bathing medium, mean±SEM (n=9-12 culture wells per condition). *, Significant difference from BSO alone, p<0.05 using ANOVA and Student-Newman-Keuls test.
as §1
Mouse cortical cell cultures (DIV 11-15) were exposed to 30 μM Fe^2+ or 10 mM BSO, alone or in the presence of 1 μM 2-hydroxy TTBA, 10-100 μM vitamin E, or 5 mM Li^+. Neuronal death was analyzed 24 h later by measuring LDH efflux in the bathing media (mean±SEM, n=12). *, Significant difference from the relevant control (Fe^2+ or BSO alone), p<0.05 using ANOVA and Student-Newman-Keuls test.
For mixed neuron-glia culture, mouse cerebral cortices were removed from brains of the 11-15 day-old-fetal mice (E11-15), gently triturated and plated on 24 well plates (2×10^5 cells/plate) precoated with 100 μg/ml poly-D-lysine and 4 pg/ml laminin. Cultures were maintained at 37° C. in a humidified 5% CO2 atmosphere. Plating media consist of Eagles minimal essential media (MEM, Earles salts, supplied glutamine-free) supplemented with 5% horse serum, 5% fetal bovine serum, 26.5 mM bicarbonate, 2 mM glutamine, and 21 mM glucose.
After 7-8 days in vitro (DIV 7-8), 10 μM cytosine arabinofuranoside (Ara-C) was included to halt overgrowth of glia. The drug treatment was carried on DIV 11-15 cortical cell culture. Overall neuronal cell injury was assessed by measuring amount of lactate dehydrogenase (LDH) released into the bathing medium 24 hr after neurotoxic insults as previously described (Koh and Choi, J Neurosci Methods 20:83-90, 1987).
Oxidative stress was induced by exposing mixed cortical cell cultures containing neurons and glia (DIV 11-15) to 50 μM FeCl2, a hydroxyl radical-producing transition metal via a Fenton reaction, or 10 mM DL-buthionine-[S,R]-sulfoximine (BSO), a glutathione depleting agent. Widespread neuronal death was observed 24 hours later. […] Administration of vitamin E prevented Fe^2+-induced free radical neurotoxicity at higher doses. This implies that 2-Hydroxy-TTBA or 2-Hydroxy-TPEA is a potent neuroprotectant against oxidative stress.

[3] = test system: cortical cell cultures containing neurons and glia; assay: cyclosporine A or calyculin A-induced neuronal cell apoptosis in cortical cell cultures; format: cell-based, mouse; details: 20 μM cyclosporine A, 24 hr; 100 μM Vitamin E, 1 μM 2-hydroxy-TTBA, 1 μM 2-hydroxy-TPEA
Description: Mouse cortical cell cultures (DIV 10-12) were exposed to 20 μM cyclosporine A or 10 nM calculin A, alone or with inclusion of 0.3-30 mM Li. Neuronal death was analyzed 24-28 hr later by measuring levels of LDH released into the bathing medium, mean±SEM (n=9-12 culture wells per condition).
Mouse cortical cell cultures (DIV 10-12) were exposed to 20 μM cyclosporine A, alone or with 100 μM Vitamin E, 1 μM 2-hydroxy-TTBA, or 1 μM 2-hydroxy-TPEA. Neuronal death was analyzed 24 hr later by measuring levels of LDH released into the bathing medium, mean±SEM (n=9-12 culture wells per condition).
Cortical cell cultures containing neurons and glia at 10-12 days in vitro (DIV 10-12) were exposed to 20 μM cyclosporine A (CsA) or 10 nM caliculin A (cal A). Neurons underwent widespread apoptosis 24 hr later as previously reported (McDonald et al., 1996; Ko et al., 2000). […] This implies that Li^+ and the neuroprotective drugs (vitamin E, trolox, BAS, CBAS, FBAS, TBAS, PBAS, MBAS, NPAA, NPPAA, 2-Hydroxy-TTBA, and 2-Hydroxy-TPEA) selectively prevent neuronal cell apoptosis and free radical-mediated necrosis, respectively.

G93A transgenic mice = assay: oxidative stress in lumbar spinal motor neurons of G93A transgenic mice (nitrotyrosine, MitoTracker); format: in vivo, mouse; details: 30 mg/kg/d oral in diet from 8 weeks of age, at 10 weeks of age
Description: D: Fluorescent photomicrographs of the lumbar ventral section immunolabeled with nitrotyrosine antibody from the wild type (a), or ALS transgenic mice treated with vehicle (b), or 2-hydroxy TTBA for 2 weeks starting from at age of 8 weeks (c). Arrows indicate motor neurons (top panel). Levels of nitrotyrosine were quantitated, mean±SEM (n=15 sections from 3 mice per each condition (bottom panel). p<0.05 using ANOVA and Student-Newman-Keuls test.
E: Same as D except measurement of the fluorescence intensity of oxidized MT red CM-H2XRos. p<0.05 using ANOVA and Student-Newman-Keuls test.
G93A transgenic mice received oral administration of 2-hydroxy-TTBA (30 mg/kg/d) in the diet from 8 weeks of age. The oral administration of 2-Hydroxy-TTBA blocked nitrotyrosine, and mitochondrial free radical increased in the lumbar spinal motor neurons at 10 weeks of age compared to the wild type (FIGS. 5D & 5E). […] Thus, cell necrosis and Fas-mediated apoptosis induced in G93A mice can be prevented by oral administration of 2-hydroxy-TTBA and Li^+.

Row | Structure (SMILES) | Fe^2+-induced free radical neurotoxicity, effect in words [1] | Fe^2+-induced neuronal death (oxidative stress), effect in words ([1]; listed as 2-hydroxy TTBA) | Fe^2+-induced neuronal death (oxidative stress), effect in words ([1]; listed as 2-hydroxy-TTBA) | IC50 [1] [nM] | neuroprotective effect against Fe^2+-induced oxidative neuronal death relative to vitamin E ([1]; higher than vitamin E) [times] | BSO-induced free radical neurotoxicity, effect in words [2] | BSO-induced neuronal death (oxidative stress), effect in words ([2]; listed as 2-hydroxy TTBA) | BSO-induced neuronal death (oxidative stress), effect in words ([2]; listed as 2-hydroxy-TTBA) | cyclosporine A-induced neuronal cell apoptosis, effect in words [3] | nitrotyrosine and mitochondrial free radical increased in the lumbar spinal motor neurons (G93A transgenic mice)
1 | O=C(O)c1cc(NCc2c(F)c(F)c(C(F)(F)F)c(F)c2F)ccc1O [2-Hydroxy-TTBA, 2-hydroxy-5-(2,3,5,6-tetrafluoro-4-trifluoromethyl-benzylamino)-benzoic acid] | nearly completely blocked | prevents oxidative stress | completely blocked | 110 | 220 | nearly completely blocked | prevents oxidative stress | completely blocked | not attenuated; also recorded: do not attenuate | blocked
2 | O=C(O)c1cc(NCCc2ccc(C(F)(F)F)cc2)ccc1O [chemical 01, 2-Hydroxy-5-[2-(4-trifluoromethyl-phenyl)-ethylamino]-benzoic acid] | nearly completely blocked |  |  | 99 |  | nearly completely blocked |  |  | not attenuated; also recorded: do not attenuate | 
